{"source": "patent US12721846B2", "about": "“Methods for treating behavioral and psychological symptoms in patients with dementia” (SUVEN LIFE SCIENCES LIMITED, priority 2019, dated 2026)", "key": {"[1]": {"conditions": "30 mg daily dose; patients with AD; cited from earlier work"}, "[2]": {"conditions": "cited from earlier work"}, "[3]": {"test_system": "Swiss albino mice (aggression, duration of attack)", "test": "Resident-intruder task", "assay_type": "in vivo, mouse", "conditions": "masupirdine 0.30 mg/kg p.o. 60 min prior; donepezil or memantine 0.30 mg/kg i.p. 30 min prior; 10 min exposure", "procedure": "Male Swiss albino mice of weight range 30-40 g (Resident) and 15-25 g (Intruder) were used. Resident mice were habituated individually with an ovariectomized female mouse in each cage for at least 2 weeks and intruders were habituated socially for at least 5 days. β-Estradiol at a dose of 0.2 mg/kg, s.c. was administered to ovariectomized female mice during habituation. After habituation for 3 weeks, the intruder was exposed to resident mice for a period of 10 min in the home cage of resident animal and duration of attack was recorded for two days (day 1 & 2). During this 10 min exposure period, ovariectomized female mice were removed from resident cage, resident animals were randomized based on their duration of attack. On day 4 (from initial exposure), resident animals were administered respective treatments. […] After post dose interval resident mice were exposed to same intruder for 10 min and duration of attack was recorded. Data were analyzed using GraphPad Prism software."}, "[4]": {"test_system": "DOI induced head twitch response (model of hallucination)", "test": "DOI induced head twitch response", "assay_type": "in vivo, rat", "conditions": "1 mg/kg, p.o.; DOI 5 mg/kg s.c.; 10 min", "procedure": "DOI induced head twitch response is considered to be a behavioral model of hallucination (Pharmacol Rep. 2012; 64(6):1567-72). Male Wistar rats of 200-290 g were weighed and randomized according to their body weights. On day 1, rats were first habituated to the arena for 15 min. […] 15 min before the trial, rats were subjected to habituation and immediately following the habituation, DOI, 5 mg/kg s.c was administered. The rats were then placed in the arena and head twitches were recorded for 10 min. Data were analyzed using GraphPad Prism software."}, "[5]": {"test_system": "norepinephrine and dopamine levels in prefrontal cortex", "test": "Microdialysis: modulation of norepinephrine and dopamine levels in cortex", "assay_type": "in vivo, rat", "conditions": "male Wistar rats, masupirdine 3 mg/kg p.o., donepezil or memantine 1 mg/kg s.c.", "from_the_text": "Male Wistar rats (240-300 g body weight) were stereotaxically implanted with a microdialysis guide cannula in prefrontal cortex (PFC; AP: +3.2 mm, ML: −0.5 mm, DV: −1.0 mm) under isoflurane anesthesia. […] The rats were allowed to recover individually for four days in a round bottom Plexiglas bowl with free access to feed and water.\nSixteen hours before start of the study, a pre-equilibrated microdialysis probe (4 mm dialysis membrane) was inserted into PFC through the guide cannula. On the day of study, probe was perfused with artificial cerebrospinal fluid (aCSF; NaCl 150 mmol, KCl 3.0 mmol, MgCl2 0.9 mmol, CaCl2. 2H2O 1.7 mmol, pH 6.2) at a flow rate of 1.5 μL/min and a stabilization period of 2 h was maintained. […] Dialysates were stored below −50° C. prior to analysis.\nNorepinephrine and dopamine levels in dialysates were quantified using LC-MS/MS method.\nStatistical significance was considered at a p value less than 0.05."}}, "note": "Entries after “also recorded” stand apart in the source; their conditions may differ.", "data": [{"smiles": "CN(C)CCCC1(c2ccc(F)cc2)OCc2cc(C#N)ccc21", "note": "(centres unmarked) [Citalopram]", "values": [{"measurement": "adverse effects seen in treatment group", "setting": "[1]", "result": "Worsening of cognition; also recorded: QT interval prolongation"}]}, {"smiles": "CC(C)COc1ccc(CNC(=O)N(Cc2ccc(F)cc2)C2CCN(C)CC2)cc1", "note": "[Pimavanserin]", "values": [{"measurement": "effect for agitation", "setting": "[2]; AD study", "result": "no effect"}, {"measurement": "effect on NPI-NH psychosis scale", "setting": "[2]; week 6", "result": "statistically significant effect"}]}, {"smiles": "COc1ccc2c(c1)c(CN1CCN(C)CC1)cn2S(=O)(=O)c1ccccc1Br", "note": "[masupirdine, 1-[(2-bromophenyl)sulfonyl]-5-methoxy-3-[(4-methyl-1-piperazinyl)methyl]-1H-indole]", "values": [{"measurement": "duration of attack compared with basal", "setting": "[3]", "result": "equal duration of attack"}, {"measurement": "number of head twitches", "setting": "[4]", "result": "significantly reduced the number of head twitches"}]}, {"smiles": "CC12CC3CC(C)(C1)CC(N)(C3)C2", "note": "[memantine]", "values": [{"measurement": "duration of attack compared with basal", "setting": "[3]", "result": "decrease in duration of attack when compared with its basal; however it was not statistically significant"}, {"measurement": "cortical dopamine levels, AUC of percent change", "setting": "[5]", "result": "327.75±24.99"}, {"measurement": "cortical norepinephrine levels, AUC of percent change", "setting": "[5]", "result": "371.34±22.45"}]}]}
